Assay results reported in US8173675B2, “Substituted amino-thiourea compounds for combating animal pests” (BASF SE, priority 2007, dated 2012).

Columns and labels:
[1] = test system: Vetch Aphid (Megoura viciae); experiment: Vetch aphid (Megoura viciae) test, sprayed bean leaf disks in microtiterplates; format: in vivo; details: foliar, 144 h, bean leaf disks sprayed with 2.5 μl, 6 days, read-out: mortality compared to untreated controls
Experimental: The active compounds were formulated in 1:3 DMSO:water. Bean leaf disks were placed into microtiterplates filled with 0.8% agar-agar and 2.5 ppm OPUS™. The leaf disks were sprayed with 2.5 μl of the test solution and 5 to 8 adult aphids were placed into the microtiterplates which were then closed and kept at 22-24° C. and 35-45% under fluorescent light for 6 days. Mortality was assessed on the basis of vital, reproduced aphids. Tests were replicated 2 times.

[2] = test system: Cowpea Aphid (aphis craccivora); experiment: Cowpea aphid (aphis craccivora) test, colonized potted cowpea plants sprayed; format: in vivo; details: population reduction recorded after 24, 72, and 120 hours
Experimental: (§1) In the following tests, the formulated solutions of the active compounds were diluted to an active ingredient concentration of 300 ppm, if not otherwise described, and the diluted solutions were applied in the below mentioned tests.
The active compounds were formulated in 50:50 acetone:water. Potted cowpea plants colonized with 100-150 aphids of various stages were sprayed after the pest population has been recorded. Population reduction was recorded after 24, 72, and 120 hours.

[3] = test system: Green Peach Aphid (Myzus persicae); experiment: Green peach aphid (Myzus persicae) test, infested bell pepper leaves dipped in test solution; format: in vivo; details: 120 h, determined after 5 days, read-out: mortality of green peach aphid in comparison with untreated controls
Experimental: (§2) The active compounds were formulated in a mixture of 50 vol.-% acetone:50 vol.-% water. A nonionic surfactant (Kinetic®) was included in the solution at a volume of 0.01% v/v.
as §1
Bell pepper plants at the first true-leaf stage were infested prior to treatment by placing heavily infested leaves from the main aphid colony on top of the treatment plants. The aphids were allowed to transfer overnight to accomplish an infestation of 30-40 aphids per plant and the host leaves were removed. The infested leaves of the test plants were then dipped and agitated in the test solution for 3 seconds and allowed to dry in a fume hood. Test plants were maintained under fluorescent lighting in a 24-hr photoperiod at 25° C. and 20-40% relative humidity. Mortality on the treated plants, relative to mortality on untreated check plants, was determined after 5 days.

[4] = test system: Silverleaf Whitefly (bemisia argentifolii); experiment: Silverleaf whitefly (bemisia argentifolii) test, cotton cotyledons dipped, whitefly adults introduced; format: in vivo; details: 72 h, whitefly adults on dipped cotton cotyledons, assessed 3 days after treatment, read-out: mortality compared to untreated controls
Experimental: as §1
The active compounds were formulated in 50:50 acetone:water and 100 ppm Kinetica™ surfactant.
Selected cotton plants were grown to the cotyledon state (one plant per pot). The cotyledons were dipped into the test solution to provide complete coverage of the foliage and placed in a well-vented area to dry. Each pot with treated seedling was placed in a plastic cup and 10 to 12 whitefly adults (approximately 3-5 day old) were introduced. The insects were colleted using an aspirator and an 0.6 cm, non-toxic TygonÒ tubing (R-3603) connected to a barrier pipette tip. The tip, containing the collected insects, was then gently inserted into the soil containing the treated plant, allowing insects to crawl out of the tip to reach the foliage for feeding. The cups were covered with a reusable screened lid (150 micron mesh polyester screen PeCap from Tetko Inc). Test plants were maintained in the holding room at about 25° C. and 20-40% relative humidity for 3 days avoiding direct exposure to the fluorescent light (24 hour photoperiod) to prevent trapping of heat inside the cup. Mortality was assessed 3 days after treatment of the plants.

[5] = test system: Cotton Aphid (Aphis gossypii); experiment: Cotton aphid (Aphis gossypii) test, infested cotton cotyledons dipped in test solution; format: in vivo; details: 120 h, determined after 5 days, read-out: mortality of cotton aphid (Aphis gossypii, mixed life stages) in comparison with untreated controls
Experimental: as §2, §1
Cotton plants at the cotyledon stage were infested prior to treatment by placing a heavily infested leaf from the main aphid colony on top of each cotyledon. The aphids were allowed to transfer overnight and the host leaf was removed. The infested cotyledons were then dipped and agitated in the test solution for 3 seconds and allowed to dry in a fume hood. Test plants were maintained under fluorescent lighting in a 24-hr photoperiod at 25° C. and 20-40% relative humidity. Aphid mortality on the treated plants, relative to mortality on untreated check plants, was determined after 5 days.

| melting point [°C] | Structure (SMILES) | mortality at 2500 ppm [1] [%] | mortality at 300 ppm [2] [%] | mortality at 300 ppm [3] [%] | mortality at 300 ppm [4] [%] | mortality at 300 ppm [5] [%] |
| --- | --- | --- | --- | --- | --- | --- |
|  | CC(=O)OCCNC(=S)NC1CSc2c(F)cccc21 (stereo not drawn) [Compound example 3, Acetic acid 2-[3-(7-fluoro-2,3-dihydro-benzo[b]thiophen-3-yl)thioureido]-ethyl ester] | ≥ 75 | ≥ 75 | ≥ 75 | ≥ 75 |  |
|  | OCCNC(=S)NC1CSc2c(F)cccc21 (stereo not drawn) [Compound example 2, 1-(7-Fluoro-2,3-dihydro-benzo[b]thiophen-3-yl)-3-(2-hydroxy-ethyl)-thiourea] | ≥ 75 | ≥ 75 | ≥ 75 |  | ≥ 75 |
| 67 to 69 | OCCNC(=S)NC1(c2ccccc2)CCc2ccccc21 (stereo not drawn) [Compound example 4] |  |  |  |  |  |
|  | CC1Cc2c(F)cccc2C1NC(=S)NCCO (stereo not drawn) [Compound example 8] | ≥ 75 | ≥ 75 | ≥ 75 |  | ≥ 75 |
|  | CC1(C)Cc2c(F)cccc2C1NC(=S)NCCO (stereo not drawn) [Compound example 6] | ≥ 75 | ≥ 75 | ≥ 75 |  | ≥ 75 |
|  | OCCNC(=S)NC1COc2ccc(F)cc21 (stereo not drawn) [Compound example 1, 1-(5-Fluoro-2,3-dihydro-benzofuran-3-yl)-3-(2-hydroxy-ethyl)-thiourea] | ≥ 75 | ≥ 75 | ≥ 75 |  | ≥ 75 |
|  | CC(=O)OCCNC(=S)NC1c2cccc(F)c2CC1(C)C (stereo not drawn) [Compound example 5] | ≥ 75 | ≥ 75 | ≥ 75 | ≥ 75 | ≥ 75 |
|  | CC(=O)OCCNC(=S)NC1CC(C)c2c(F)cccc21 (stereo not drawn) [Compound example 7] | ≥ 75 |  | ≥ 75 | ≥ 75 | ≥ 75 |
